Values quoted from earlier work as cited in patent publication US20170189443A1, “COMPOSITIONS AND METHODS FOR TREATMENT OF DISEASES AND CONDITIONS EMPLOYING ORAL ADMINISTRATION OF SODIUM PENTOSAN POLYSULFATE AND OTHER PENTOSAN POLYSULFATE SALTS” (URIGEN PHARMACEUTICALS, INC., priority 2014, published 2017).
Like-named read-outs stand apart in the source and are kept apart here.

Assays:
interstitial cystitis [1] = conditions: intravesical instillations
interstitial cystitis [2] = conditions: intravesical
[3] = oral administration
[4] = tritiated pentosan polysulfate, healthy human volunteers, Simon et al. 2005

For `C[S+](C)[O-]` [DMSO, dimethylsulfoxide], the “IC patients treated with benefit” value (interstitial cystitis [1]) is given as about 50%.

For `O=S(=O)(O)CCS` [Mesnex, mesna], the “frequency of adverse events (all AEs)” value (IV) is given as 85% and the “frequency of adverse events (all AEs)” value (oral) is given as 89%.

In the case of heparin, the “patients treated in whom the agent is effective” value (interstitial cystitis [2]) is given as “approximately 50%”.

For sodium pentosan polysulfate, the oral availability [3] is given as 2-6%, the excreted through urine [4] is given as 6% and the “excreted unchanged in feces” value [4] is given as “more than 94%”.
